From article PMC9267955, “Antidiabetic, Antiglycation, and Antioxidant Activities of Ethanolic Seed Extract of Passiflora edulis and Piceatannol In Vitro” (Molecules, 2022)
Marks after values point to notes of the source that are not given here.

Assays:
[1] = test system: amyloid fibrils of glycated BSA (BSA/MGO); experiment: Inhibition of amyloid fibril formation, ThT assay (BSA/MGO); assay type: biochemical, bovine; conditions: highest obtained, PESE 200, PIC 200, AMG 100 µg/mL
Method: The BSA-MGO assay was based on those described before, with some modifications. This experiment is based on the formation of fluorescent AGEs from the middle stage of protein glycation. MGO (1.5 mM) and BSA (3 mg/mL) were dissolved separately in 0.05 M phosphate buffer (pH 7.4) containing NaCl (100 mM) and NaN3 (0.02% w/v). Then, 300 μL of MGO was incubated with samples at different concentrations (dissolved in a buffer containing 60% ethanol) for an hour at 37 °C, in the dark, with constant stirring. After BSA (3 mg/mL) was added to the reaction mixture and incubation time was extended to 48 h at 37 °C in darkness. The rest of the procedure was the same as that for the BSA-glucose/fructose model that is described above. The percentage of the AGE inhibition and IC50 was calculated as described in Section 3.3.1.
The fibrillar state of modified BSA was determined with ThT as previously described. ThT is a probe that binds directly to amyloid fibrils to give a strong fluorescent signal and thus can be used to quantify β-amyloid due to protein glycation. Basically, 30 μL of glycated protein (approx. 1 mg/mL), obtained as described previously, was mixed with 100 μL ThT reagent (10 μM ThT in 100 mM phosphate buffer, pH 7.0), and fluorescence was collected at excitation/emission wavelengths of 450/490 nm in a microplate reader (Infinite® 200 PRO, TECAN, Männedorf, Switzerland). […]

[2] = Superoxide anion radical scavenging activity
Method: The potential of the samples to scavenger superoxide anion radicals was determined, with minor modifications. […] Phosphate buffer (19 mM, pH 7.4) was used to dissolve NADH, NBT, and PMS. QCT was used as means of comparison. The experiment was conducted at 37 °C in a microplate reader (Infinite® 200 PRO, TECAN, Männedorf, Switzerland), and the absorbance was measured at 560 nm. The results were expressed as IC50 of extract solution in μg/mL.

MTS cell viability assay = assay type: cell-based; conditions: human, MCF-10A cells, up to 100 µg/mL
Method: BEAS-2B, MCF10-A, and AML-12, cells were purchased from the American Tissue Type Culture Collection (ATCC; CRL-9609, CRL-10317, and CRL-2254) and cultured with a specific medium. BEAS-2B cells were cultured with LHC-9 media at 37 °C in an incubator with 5% CO2. […] Cells were grown to around 70% confluence on the culture flask, and passages (<10) were employed for all experimental conditions. MTS Cell Titer 96™ aqueous cell proliferation assay was used to determine cell viability. […] For that, 1 × 10^4 cells were plated on a 96-well plate with a growth medium of 100 μL/well. […] Fifteen microliters of MTS reagent (with PMS) was then added to each well and incubated for 3 h in the dark. Absorbance was recorded at 490 nm using a microplate reader (Infinite® 200 PRO, TECAN, Männedorf, Switzerland). For each experiment, cells with DMSO media served as control, and cells with only culture medium and MTS reagent served as the blank.

db/db mice = test system: db/db mice; parameters: method as in PMID 25832644; conditions: PIC supplementation; cited from earlier work
cultured myotubes = test system: cultured myotubes; parameters: method as in PMID 25832644; conditions: in the absence of insulin; cited from earlier work

SMILES: Oc1cc(O)cc(/C=C/c2ccc(O)c(O)c2)c1 [PIC, 3,3′,4′,5-trans-tetrahydroxystilbene]
- Inhibition of Amyloid Fibrils (%), MGO [1]: 100 ± 3.8 ^a %
- O2•− IC50 [2]: 7.3 ± 0.02 µg/mL
- IC50 ([2]; data in parenthesis are in μM, read-out: O2•− IC50 (in parenthesis) (converted)): 30.1 µM
- viability at 24 h (MTS cell viability assay): > 80%
- Fasting blood glucose, db/db mice (db/db mice): reduced fasting blood glucose
- Glucose uptake in cultured myotubes (cultured myotubes): promoted glucose uptake
